We go through 2 molecules from US8143223B2, “Cytoprotection by means of phosphotyrosine” (Eberhard-Karls-Universitaet Tuebingen Universitaetsklinikum, priority 2001, dated 2012).

In assay [1] the test system is normal skin fibroblasts (HSF6). As to the kind of experiment: Clonogenic assay after P-Tyr pretreatment alone, no cell-damaging treatment. In kind it is cell-based, human. The following applies: P-Tyr alone for 16 hours at up to 2000 μM, FIG. 2A. The protocol: Human fibroblasts (cell strains HSF1 and HSF6, which are derived from human skin, passages 9 to 15; CCD32, which is derived from embryonic lung tissue, passages 9 to 11) are particularly well suited for investigating the cytoprotective properties of the phosphotyrosine.
The cells are cultured in Dulbecco's modified Eagle's medium (DMEM) supplemented with 10% fetal calf serum (FCS) (GIBCO/BRL, Eggenstein, Germany, article No. 40G7285K) (=normal medium), under standard conditions. […]
(§1) In this connection, a colony is a mass of cells which develops, during the 14 days of culture, from a single cell as a result of consecutive cell divisions. […] If many cells die during the treatment with the cell-damaging factors, only a few colonies are then formed after 14 days; if many cells survive, many colonies can then be counted after the 14 days of culture. […]
(§2) After the 14 days of culture, the cells are fixed, stained and counted as described (Dittmann et al., 1995, loc. cit.). When determining clonogenic survival, the colonies containing more than 50 cells are counted per plate. […]
(§3) The result of such a clonogenic assay is expressed as “relative cytoprotection” or in “% number of the clones”, with the number of the colonies formed in the different assays being related to each other. […]

The subject of assay [2] is liver carcinoma cell line and arc-transformed NIH 3T3 cells. The following applies: Mishra and Hamburger, Cancer Letters 1996; cited from earlier work.
Assay [3] deals with human breast and kidney carcinoma cells. The following applies: Mishra and Hamburger 1993; P-Tyr dose-dependent; run at 1.67 mM, some at 16.7 mM; cited from earlier work.
Assay [4] relates to transformed fibroblasts (HH4dd). The assay is described as follows: Clonogenic assay after P-Tyr pretreatment and UVB irradiation. In kind it is cell-based, human. The note with it: 10 μM P-Tyr for 16 hours, then 200 J of UVB, FIG. 5B. The protocol: (§4) The cells are irradiated with UV light (312 nm) at a dose rate of 450 J/m^2 per minute using a UVB lamp (Bioblock Scientific, Illkirch Cedex, France).
(§5) The cells, which are cultured as described in Example 1 and which are either incubated with the cell-damaging factors as described in Example 2 or remain untreated as controls, are freed from medium, washed and detached from the substrate using 0.05% trypsin and 0.1% EDTA. For the purpose of analyzing colony formation, the detached cells are plated at a constant cell density of 1500 cells per 78 cm^2 dish. The plated cells were then incubated for 14 days in normal medium additionally containing 20% FCS. This period of time enabled colony formation to take place.
(§6) In this connection, a colony is a mass of cells which develops, during the 14 days of culture, from a single cell as a result of consecutive cell divisions. This colony is also termed a clone. […] If many cells die during the treatment with the cell-damaging factors, only a few colonies are then formed after 14 days; if many cells survive, many colonies can then be counted after the 14 days of culture. […]
as §2

Assay [5] concerns normal, untransformed fibroblasts (HSF1). The description is as above. In kind it is cell-based, human. The following applies: 10 μM P-Tyr for 16 hours, then 200 J of UVB, assayed 7 hours later, FIG. 5A. The protocol: as §4, §5, §6, §2
Assay [6] has as its system transformed fibroblast cell line HH4dd. As to the kind of experiment: Clonogenic assay after P-Tyr pretreatment alone, no cell-damaging treatment. In kind it is cell-based, human. The note with it: FIG. 2A.
From the text: Transformed human fibroblasts, e.g., the cell line HH4dd (is derived from human skin, passages 65 to 70), are also suitable for the investigation. This cell line is derived from the normal cell strain HH4 and is likewise characterized by a p53 mutation (Dittmann et al., “The radioprotective effect of BBI is associated with the activation of DNA-repair relevant genes”, Int. J. Radiat. Biol. 74, pages 225-230, 1998). HH4dd grows in soft agar, is characterized by its aneuploidy and induces tumors in nude mice. […]
as §1, §2, §3

Assay [7] deals with untransformed fibroblasts (HSF1). As to the kind of experiment: Clonogenic assay comparing the radioprotective effect of phosphorylated amino acids, 4 Gy. In kind it is cell-based, human. The note with it: 10 μM for 16 hours, then 4 Gy ionizing irradiation, FIG. 3.
The test system of assay [8] is transformed fibroblasts (HH4dd). As to the kind of experiment: Clonogenic assay after P-Tyr pretreatment and cisplatin treatment. In kind it is cell-based, human. The following applies: 10 μM P-Tyr for 16 hours, then 1 μg of cisplatin/ml for one hour, FIG. 6B. The protocol: (§7) The incubation with cisplatin take place at a concentration of 1 μg of cisplatin/ml (cis-diammine platinum(II-dichloride); Sigma, Munich, Germany).
as §5, §6, §2

In assay [9] the test system is normal, untransformed fibroblasts (HSF1). Described as above. The following applies: 10 μM P-Tyr for 16 hours, then 1 μg of cisplatin/ml for one hour, versus cells not pretreated, FIG. 6A. In kind it is cell-based, human. As for the experimental part: as §7, §5, §6, §2
Assay [10] in a line: Inventors' investigations of the concentration range of the cytoprotective effect. The following applies: investigations carried out by the inventors. In kind it is cell-based. The protocol:
In the culture medium according to the invention it is preferred to use phosphotyrosine in a concentration range of from 1 to 100 μM. Thus, investigations carried out by the inventors have shown that the cytoprotective effect of the phosphotyrosine is particularly high in this range.

In assay [11] the test system is HTB-43 squamous carcinoma cell line. As to the kind of experiment: Clonogenic assay after P-Tyr pretreatment and ionizing irradiation at 0 to 6 Gy. In kind it is cell-based, human. The following applies: 10 μM P-Tyr for 16 hours, FIG. 4.
From the text: (§8) In addition, it is possible to use the human squamous carcinoma cell lines HTB-35 (ATCC, which is derived from a cervical carcinoma, passage unknown, used in passage 10 after receipt) (Srivastava et al., “The status of the p53 gene in human papilloma virus positive or negative cervical carcinoma cell lines”, Carcinogenesis 13, pages 1273-1275, 1992) and HTB-43 (ATCC, is derived from a hypopharyngeal tumor, passage 124). Both carcinoma cell lines are characterized by a point mutation in the p53 gene (Kim et al., “State of p53, Rb and DCC tumor suppressor genes in human oral cancer cell lines”, Anticancer Research, pages 1405-1413, 1993). […]
as §1, §2

In assay [12] the test system is HTB-35 squamous carcinoma cell line. Described as above. In kind it is cell-based, human. The note with it: 10 μM P-Tyr for 16 hours, FIG. 4.
From the text: as §8, §1, §2

The test system of assay [13] is transformed HH4dd fibroblasts. The assay is described as follows: Clonogenic assay after P-Tyr pretreatment and ionizing irradiation at 4 Gy, different P-Tyr doses. In kind it is cell-based, human. The following applies: FIG. 2B. The protocol:
(§9) For the radioactive irradiation, the cells are irradiated with 4 MV photons using a “Linac” (Mevatron^60/Siemens, Erlangen, Germany) using a dose rate of 2 Gy/min at room temperature, as described (Dittmann et al. “Bowman-Birk Proteinase inhibitor modulates radiosensitivity and radiation-induced differentiation of human fibroblasts in culture”, Radiother. Oncol. 34, pages 137-143, 1995).
(§10) The cells, which are cultured as described in Example 1 and which are either incubated with the cell-damaging factors as described in Example 2 or remain untreated as controls, are freed from medium, washed and detached from the substrate using 0.05% trypsin and 0.1% EDTA. For the purpose of analyzing colony formation, the detached cells are plated at a constant cell density of 1500 cells per 78 cm^2 dish. […]
as §1, §2

Assay [14] deals with normal lung fibroblasts (CCD32). As to the kind of experiment: Clonogenic assay after P-Tyr pretreatment and ionizing irradiation at 0 to 6 Gy. The following applies: 10 μM P-Tyr for 16 hours, up to 6 Gy, FIG. 4. In kind it is cell-based, human. As for the experimental part:
as §9, §10, §1, §2

For assay [15], the system named is normal skin fibroblasts (HSF6). The description is as above. In kind it is cell-based, human. The following applies: 10 μM P-Tyr for 16 hours, up to 6 Gy, FIG. 4. As for the experimental part: as §9, §10, §1, §2
For assay [16], the system named is normal skin fibroblasts (HSF6). As to the kind of experiment: Clonogenic assay after P-Tyr pretreatment and ionizing irradiation at 4 Gy, different P-Tyr doses. In kind it is cell-based, human. The following applies: FIG. 2B. As for the experimental part:
as §9, §10, §1, §2

For `N[C@@H](Cc1ccc(OP(=O)(O)O)cc1)C(=O)O` [P-Tyr, O-phospho-L-tyrosine (L-3-[4-hydroxy-phenyl]alanine-4′-phosphate)], the “effect on clonogenic survival” value is “does not have any effect on the clonogenic survival” in assay [1] and “no effect was seen on clonogenic survival” in assay [6]. The “cell growth of liver carcinoma cell line and arc-transformed NIH 3T3 cells” value in assay [2] is on record as “inhibit cell growth”. The “growth of human breast and kidney carcinoma cells” value in assay [3] is on record as “inhibits the growth”. Moreover, in [4], the “effect on clonogenic survival after UVB irradiation” value is “no effect on the clonogenic survival”. For the same molecule, the “increase in clonogenic survival after UVB irradiation” value in [5] is given as 37%. In [7], the “radioprotection (clonogenic assay)” value is given as “significant radioprotection”. Also, in assay [8], the “clonogenic survival after cisplatin treatment” value is given as “did not lead to any increase in clonogenic survival”. Further, the “increase in clonogenic survival after cisplatin incubation” value in assay [9] was determined as 38.7%. The “concentration range in which the cytoprotective effect is particularly high” value in assay [10] was in the range of 1 to 100 µM. The “clonogenic survival after ionizing irradiation” value in assay [11] is “significant reduction in clonogenic survival”; in [12], “significant reduction in clonogenic survival”; in assay [13] (transformed HH4dd fibroblasts, same treatment), “no increase in clonogenic survival was observed”; in assay [14] it was “significant increase in clonogenic survival”; in assay [15], “significant increase in clonogenic survival”; in assay [16] (phosphotyrosine plus ionizing irradiation at 4 Gy), “clear increase in clonogenic survival”. Further, the “toxicity of the radiation” value in assay [13] (transformed fibroblasts, 2000 pM P-Tyr) is “significant increase in the toxicity of the radiation”. The “P-Tyr concentration at which maximum survival was achieved” value in assay [16] (ionizing irradiation at 4 Gy) came out at 10 µM.

Consider `C[C@@H](OP(=O)(O)O)[C@H](N)C(=O)O` [P-Thr, phosphothreonine, reference compound], for which the “radioprotection (clonogenic assay)” value in assay [7] is recorded as “did not result in any radioprotection”.
